Source: the supplement of paper PMC10307832

Experiments:
Experiment in all cases: relative viability (nuclei count vs DMSO), 5 days (fraction); higher = more cells survive
[1] = test system: NCI-H1355
Method in brief: (§1)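 The day after seeding in 1536-well plates, lung cancer cell lines were treated by pin tool with a single drug, or with a fixed anchor-drug dose together with five library-drug doses (not always all listed) in √10 steps. After 5 days, a combined fix-and-stain solution (final 0.05% Triton X-100, 1% formaldehyde, 1 ug/ml Hoechst) was added. Nuclei counted on 4× images gave relative viability as treated counts over vehicle counts, reported as the median of duplicate plates.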

[2] = test system: NCI-H1437
Method in brief: as §1

[3] = test system: NCI-H441
Method in brief: as §1

[4] = test system: LOU-NH91
Method in brief: as §1

[5] = test system: CAL-12T
Method in brief: as §1

[6] = test system: NCI-H2023
Method in brief: as §1

[7] = test system: NCI-H460
Method in brief: as §1

[8] = test system: HCC-44
Method in brief: as §1

[9] = test system: NCI-H358
Method in brief: as §1

[10] = test system: NCI-H1650
Method in brief: as §1

[11] = test system: NCI-H1651
Method in brief: as §1

[12] = test system: NCI-H1975
Method in brief: as §1

[13] = test system: NCI-H838
Method in brief: as §1

[14] = test system: NCI-H2342
Method in brief: as §1

[15] = test system: NCI-H1395
Method in brief: as §1

[16] = test system: LCLC-103H
Method in brief: as §1

[17] = test system: NCI-H2085
Method in brief: as §1

[18] = test system: NCI-H1755
Method in brief: as §1

[19] = test system: HCC-15
Method in brief: as §1

[20] = test system: HCC-366
Method in brief: as §1

[21] = test system: EKVX
Method in brief: as §1

[22] = test system: NCI-H1734
Method in brief: as §1

[23] = test system: BEN
Method in brief: as §1

CC(C)Oc1cc(Nc2nc(N[C@@H](C)c3ccc(F)cn3)ncc2Cl)n[nH]1 [AZ23] + O=C(CCCCCCC(=O)Nc1ccccc1)NO [Vorinostat] (partner 1 µM)
relative viability ([1]; first compound 0.01 µM): 0.672
relative viability ([1]; first compound 0.03162 µM): 0.715
relative viability ([1]; first compound 0.3162 µM): 0.633
relative viability ([2]; first compound 0.01 µM): 0.981
relative viability ([2]; first compound 0.03162 µM): 0.929
relative viability ([2]; first compound 0.3162 µM): 0.809
relative viability ([3]; first compound 0.01 µM): 0.825
relative viability ([3]; first compound 0.03162 µM): 0.842
relative viability ([3]; first compound 0.3162 µM): 0.738
relative viability ([4]; first compound 0.01 µM): 0.864
relative viability ([4]; first compound 0.03162 µM): 1.03
relative viability ([4]; first compound 0.3162 µM): 0.964
relative viability ([5]; first compound 0.03162 µM): 1.03
relative viability ([5]; first compound 0.3162 µM): 0.88
relative viability ([6]; first compound 0.03162 µM): 0.605
relative viability ([6]; first compound 0.3162 µM): 0.861
relative viability ([7]; first compound 0.01 µM): 0.252
relative viability ([7]; first compound 0.03162 µM): 1.06
relative viability ([7]; first compound 0.3162 µM): 0.774
relative viability ([8]; first compound 0.01 µM): 1.14
relative viability ([8]; first compound 0.03162 µM): 1.16
relative viability ([8]; first compound 0.3162 µM): 1.09
relative viability ([9]; first compound 0.01 µM): 0.631
relative viability ([9]; first compound 0.03162 µM): 0.718
relative viability ([9]; first compound 0.3162 µM): 0.758
relative viability ([10]; first compound 0.01 µM): 0.441
relative viability ([10]; first compound 0.03162 µM): 1.16
relative viability ([10]; first compound 0.3162 µM): 0.737
relative viability ([11]; first compound 0.01 µM): 0.524
relative viability ([11]; first compound 0.03162 µM): 0.545
relative viability ([11]; first compound 0.3162 µM): 0.584
relative viability ([12]; first compound 0.01 µM): 0.734
relative viability ([12]; first compound 0.03162 µM): 0.738
relative viability ([12]; first compound 0.3162 µM): 0.731
relative viability ([13]; first compound 0.01 µM): 0.768
relative viability ([13]; first compound 0.03162 µM): 0.687
relative viability ([13]; first compound 0.3162 µM): 0.626
relative viability ([14]; first compound 0.01 µM): 0.619
relative viability ([14]; first compound 0.03162 µM): 0.74
relative viability ([14]; first compound 0.3162 µM): 0.686
relative viability ([15]; first compound 0.03162 µM): 0.685
relative viability ([15]; first compound 0.3162 µM): 0.799
relative viability ([16]; first compound 0.01 µM): 0.76
relative viability ([16]; first compound 0.03162 µM): 0.85
relative viability ([16]; first compound 0.3162 µM): 0.769
relative viability ([17]; first compound 0.01 µM): 0.662
relative viability ([17]; first compound 0.03162 µM): 0.88
relative viability ([17]; first compound 0.3162 µM): 0.755
relative viability ([18]; first compound 0.01 µM): 0.854
relative viability ([18]; first compound 0.03162 µM): 0.714
relative viability ([18]; first compound 0.3162 µM): 0.805
relative viability ([19]; first compound 0.01 µM): 0.921
relative viability ([19]; first compound 0.03162 µM): 0.963
relative viability ([19]; first compound 0.3162 µM): 0.788
relative viability ([20]; first compound 0.01 µM): 0.299
relative viability ([20]; first compound 0.03162 µM): 0.428
relative viability ([20]; first compound 0.3162 µM): 0.441
relative viability ([21]; first compound 0.01 µM): 0.811
relative viability ([21]; first compound 0.03162 µM): 0.683
relative viability ([21]; first compound 0.3162 µM): 0.675
relative viability ([22]; first compound 0.01 µM): 0.64
relative viability ([22]; first compound 0.03162 µM): 0.88
relative viability ([22]; first compound 0.3162 µM): 1.06
relative viability ([23]; first compound 0.01 µM): 0.599
relative viability ([23]; first compound 0.03162 µM): 0.659
relative viability ([23]; first compound 0.3162 µM): 0.597

CC(C)Oc1cc(Nc2nc(N[C@@H](C)c3ccc(F)cn3)ncc2Cl)n[nH]1 [AZ23] + O=C(c1cc(Cc2n[nH]c(=O)c3ccccc23)ccc1F)N1CCN(C(=O)C2CC2)CC1 [Olaparib] (partner 8 µM)
relative viability ([1]; first compound 0.01 µM): 0.808
relative viability ([1]; first compound 0.03162 µM): 0.771
relative viability ([1]; first compound 0.3162 µM): 0.699
relative viability ([2]; first compound 0.01 µM): 0.714
relative viability ([2]; first compound 0.03162 µM): 0.618
relative viability ([2]; first compound 0.3162 µM): 0.648
relative viability ([3]; first compound 0.01 µM): 0.645
relative viability ([3]; first compound 0.03162 µM): 0.69
relative viability ([3]; first compound 0.3162 µM): 0.494
relative viability ([4]; first compound 0.01 µM): 0.958
relative viability ([4]; first compound 0.03162 µM): 0.961
relative viability ([4]; first compound 0.3162 µM): 0.94
relative viability ([5]; first compound 0.01 µM): 0.752
relative viability ([5]; first compound 0.03162 µM): 0.747
relative viability ([5]; first compound 0.3162 µM): 0.745
relative viability ([6]; first compound 0.03162 µM): 0.572
relative viability ([6]; first compound 0.3162 µM): 0.573
relative viability ([7]; first compound 0.01 µM): 0.24
relative viability ([7]; first compound 0.03162 µM): 0.518
relative viability ([7]; first compound 0.3162 µM): 0.481
relative viability ([8]; first compound 0.01 µM): 1.04
relative viability ([8]; first compound 0.03162 µM): 1.04
relative viability ([8]; first compound 0.3162 µM): 0.979
relative viability ([9]; first compound 0.01 µM): 0.72
relative viability ([9]; first compound 0.03162 µM): 0.667
relative viability ([9]; first compound 0.3162 µM): 0.664
relative viability ([10]; first compound 0.01 µM): 0.685
relative viability ([10]; first compound 0.03162 µM): 0.97
relative viability ([10]; first compound 0.3162 µM): 0.876
relative viability ([11]; first compound 0.01 µM): 0.182
relative viability ([11]; first compound 0.03162 µM): 0.166
relative viability ([11]; first compound 0.3162 µM): 0.19
relative viability ([12]; first compound 0.01 µM): 0.88
relative viability ([12]; first compound 0.03162 µM): 0.904
relative viability ([12]; first compound 0.3162 µM): 0.822
relative viability ([13]; first compound 0.01 µM): 0.905
relative viability ([13]; first compound 0.03162 µM): 0.964
relative viability ([13]; first compound 0.3162 µM): 0.721
relative viability ([14]; first compound 0.01 µM): 0.413
relative viability ([14]; first compound 0.03162 µM): 0.473
relative viability ([14]; first compound 0.3162 µM): 0.399
relative viability ([15]; first compound 0.03162 µM): 0.424
relative viability ([15]; first compound 0.3162 µM): 0.452
relative viability ([16]; first compound 0.01 µM): 0.981
relative viability ([16]; first compound 0.03162 µM): 0.86
relative viability ([16]; first compound 0.3162 µM): 0.864
relative viability ([17]; first compound 0.01 µM): 0.784
relative viability ([17]; first compound 0.03162 µM): 0.884
relative viability ([17]; first compound 0.3162 µM): 0.791
relative viability ([18]; first compound 0.01 µM): 0.962
relative viability ([18]; first compound 0.03162 µM): 0.955
relative viability ([18]; first compound 0.3162 µM): 1
relative viability ([19]; first compound 0.01 µM): 1.02
relative viability ([19]; first compound 0.03162 µM): 0.698
relative viability ([19]; first compound 0.3162 µM): 0.747
relative viability ([20]; first compound 0.01 µM): 0.19
relative viability ([20]; first compound 0.03162 µM): 0.451
relative viability ([20]; first compound 0.3162 µM): 0.511
relative viability ([21]; first compound 0.01 µM): 0.912
relative viability ([21]; first compound 0.03162 µM): 0.97
relative viability ([21]; first compound 0.3162 µM): 0.895
relative viability ([22]; first compound 0.01 µM): 0.628
relative viability ([22]; first compound 0.03162 µM): 0.673
relative viability ([22]; first compound 0.3162 µM): 0.6
relative viability ([23]; first compound 0.01 µM): 1.03
relative viability ([23]; first compound 0.03162 µM): 1.24
relative viability ([23]; first compound 0.3162 µM): 1.16
